Laboratory results taken from patent publication US8124371B2, “Compositions and methods for destabilizing lysosomes to increase oncogenic or aberrant protein degradation” (priority 2003, dated 2012).
Where a SMILES comes first, the peptide text is derived from it. [ ]: non-standard residue; d: D form. The star is where a group is joined. Nle = CCCC[C@H](N)C(=O)O; Cbz = O=C(OCc1ccccc1)*; CH2F = FC*

Experiments:
HA-tagged PML/RARα = test: In vitro degradation assay with lysates of NB4-S1 cells; type: biochemical; details: for blocking of PML/RARα degradation by lysates of arsenic-treated cells: inhibitor added to in vitro degradation assay
Protocol: Cell lysates of NB4-S1 cells, either treated for 72 hours with arsenic (1 μM) or left untreated, were obtained using a mild-lysis buffer that supported lysosomal enzymatic activity. In vitro degradation assays were performed using these lysates and HA-tagged PML/RARα was used as a target for degradation.

NB4-S1 cells = test: Lysosome destabilization, lysosome-specific targeting dye and confocal microscopy; type: cell-based; details: compared to untreated cells
Protocol: (§1) By way of illustration, arsenic was applied to APL, retinoic acid-sensitive NB4-S1 cells and found to rapidly (within 2 hours) destabilize lysosomes in these leukemic cells as compared to untreated cells in an assay using a lysosome-specific targeting dye and confocal microscopy. […] Conversely, cytochrome c (an activator of caspase-induced apoptosis) was not detected in the cytosol until 96 hours.

[1] = system: isolated lysosomes from NB4 APL cells; test: Degradation of isolated lysosomes in vitro
Excerpt: (§2) This arsenic-activated degradation program was also engaged by non-leukemic cells. […] Accordingly, this lysosome-dependent degradative pathway can be employed as a general therapeutic target for the destruction of oncogenic (e.g., PML/RARα) or aberrant (e.g., CFTR) proteins in the prevention and treatment of cancer or other diseases which are associated with said proteins. Further, lysosome destabilization can be used to identify other small molecule activators which, like arsenic, would have therapeutic activity via induced destabilization of lysosomes that would in turn eliminate oncogenic or other aberrant proteins by triggering their destruction.

NB4-S1 APL cells [2] = test: Release of lysosomal proteins / cytochrome c into the cytosolic fraction, SDS-PAGE and immunoblot; type: cell-based; details: after 1 μM arsenic treatment
Protocol: as §1

[3] = system: wild-type cystic fibrosis protein (CFTR); test: CFTR degradation by cell content of arsenic-exposed COS cells; type: biochemical; details: CFTR over-expressed in MDCK cells; cell content of COS exposed to arsenic
Excerpt: as §2

[4] = system: retinoic acid-sensitive NB4-S1 APL cells; test: Growth suppression, cell counts (Coulter counter); type: cell-based; details: for growth suppressive activity: agent alone, chloroquine ranked over retinoic acid-sensitive and -resistant cells
Protocol: Three independent experiments were conducted.
To identify other agents which destabilize lysosomes, APL cells were contacted with test agents and the ability of the test agent to induce cell death was evaluated.

APL NB4-S1 cells = test: Cell differentiation, nitroblue tetrazolium reduction assay; type: cell-based; details: 20 μM, 6 days
Protocol: (§3) Cell differentiation was evaluated using a nitroblue tetrazolium reduction assay, wherein the presence blue formazan deposits under light microscopy is indicative of differentiated cells. Further, apoptosis was evaluated using Hoechst staining of nuclear DNA wherein the DNA was characterized morphologically by nuclear condensation and fragmentation of chromosomes.

NB4-S1 APL cells [5] = test: Apoptosis, Hoechst staining of nuclear DNA; type: cell-based; details: 20 μM
Protocol: as §3
The percentage of apoptotic cells was determined. This experiment was performed independently three times and three random fields were selected to assess the percentage of apoptotic cells.

## CC(NC(=O)C(NC(=O)OCc1ccccc1)C(C)C)C(=O)NC(CC(=O)O)C(=O)CF (stereo not drawn) [zVAD] (Cbz-Val-Ala-Asp-CH2F; configuration not given here)
HA-tagged PML/RARα
  blocking of PML/RARα degradation by lysates of arsenic-treated cells: did not block PML/RARα degradation

## [AsH3] [arsenic]
NB4-S1 cells
  time to destabilize lysosomes: ≤ 2 h
[1]
  degradation of isolated lysosomes upon treatment: exhibited degradation in vitro
HA-tagged PML/RARα; cells treated 72 hours, 1 μM, versus untreated cell lysates
  PML/RARα degradation by cell lysates of treated NB4-S1 cells: rapidly degraded
NB4-S1 APL cells [2]
  cathepsin B detectable in the cytosolic fraction, earliest time: 30 min
  cytochrome c not detected in the cytosol until: 96 h
  lysosomal protein esterase detectable in the cytosolic fraction, earliest time: 5 min
[3]
  CFTR degradation: observed to be degraded

## CN(C)CCCN1c2ccccc2CCc2ccccc21 [Imipramine]
[4]
  growth suppressive activity: some growth suppressive activity

## CCN(CC)CCCC(C)Nc1ccnc2cc(Cl)ccc12 (centres unmarked) [Chloroquine, 7-chloro-4-(4-diethylamino-1-methylbutylamino) quinoline]
APL NB4-S1 cells
  induction of differentiation: does not induce differentiation
NB4-S1 APL cells [5]
  induction of apoptosis: exposure time-dependent
NB4-S1 APL cells [5]; 24 hours
  % Apoptosis: 16%
NB4-S1 APL cells [5]; 48 hours
  % Apoptosis: 20%
NB4-S1 APL cells [5]; 72 hours
  % Apoptosis: 30%
[4]; chloroquine 20 μM combined with retinoic acid 0.1 μM, FIG. 1A
  growth inhibitory effect in combination with retinoic acid: additive growth inhibitory effect

## CCCCCCCCCCCCC/C=C/[C@@H](O)[C@H](CO)NCCCCCCCC [N-octyl-D-erythro-sphingosine]
[4]
  growth suppressive activity: some growth suppressive activity

## CCCC[C@@H](C=O)NC(=O)[C@H](CC(C)C)NC(=O)[C@H](CC(C)C)NC(C)=O [ALLN] (Ac-Leu-Leu-[Nle]-aldehyde)
HA-tagged PML/RARα
  blocking of PML/RARα degradation by lysates of arsenic-treated cells: did not block PML/RARα degradation
